Measurements reported in the supplement of paper PMC10307832.

What was measured:
Experiment in all cases: relative viability (nuclei count vs DMSO), 5 days (fraction); higher = more cells survive
[1] = system: NCI-H2087
Summary of the method: (§1)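 A single step with final 0.05% Triton X-100, 1% formaldehyde and 1 ug/ml Hoechst fixed the cells and stained nuclei 5 days after treatment. Lung cancer cell lines in 1536-well plates had been treated by pin tool the day after seeding with one drug alone or a fixed anchor-drug dose plus five library-drug doses (not always all listed) in √10 steps, and nuclei were counted on 4× images. Relative viability is the ratio of nuclei in treated wells to nuclei in vehicle wells, taken as the median of duplicate plates.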

[2] = system: EKVX
Summary of the method: as §1

[3] = system: HCC-78
Summary of the method: as §1

[4] = system: EPLC-272H
Summary of the method: as §1

[5] = system: LCLC-97TM1
Summary of the method: as §1

[6] = system: RERF-LC-KJ
Summary of the method: as §1

[7] = system: LU99A
Summary of the method: as §1

[8] = system: NCI-H1944
Summary of the method: as §1

[9] = system: SW 1573
Summary of the method: as §1

[10] = system: HCC-827
Summary of the method: as §1

[11] = system: NCI-H1650
Summary of the method: as §1

[12] = system: ChaGo-K-1
Summary of the method: as §1

## O=c1[nH]c2ccccc2n1C1CCN(CCCC(c2ccc(F)cc2)c2ccc(F)cc2)CC1 [Pimozide] + Cc1nc(Nc2ncc(C(=O)Nc3c(C)cccc3Cl)s2)cc(N2CCN(CCO)CC2)n1 [Dasatinib] (partner 0.075 µM)
[1]; first compound 2.53 µM
  relative viability: 0.642
[1]; first compound 8 µM
  relative viability: 0.672
[2]; first compound 0.253 µM
  relative viability: 0.489
[2]; first compound 0.8 µM
  relative viability: 0.544
[2]; first compound 2.53 µM
  relative viability: 0.536
[2]; first compound 8 µM
  relative viability: 0.688
[3]; first compound 0.08 µM
  relative viability: 0.387
[3]; first compound 0.8 µM
  relative viability: 0.327
[3]; first compound 2.53 µM
  relative viability: 0.345
[3]; first compound 8 µM
  relative viability: 0.373
[4]; first compound 0.08 µM
  relative viability: 0.298
[4]; first compound 0.253 µM
  relative viability: 0.322
[4]; first compound 0.8 µM
  relative viability: 0.385
[4]; first compound 2.53 µM
  relative viability: 0.293
[4]; first compound 8 µM
  relative viability: 0.215
[5]; first compound 0.08 µM
  relative viability: 0.94
[5]; first compound 0.253 µM
  relative viability: 0.811
[5]; first compound 0.8 µM
  relative viability: 0.797
[5]; first compound 2.53 µM
  relative viability: 0.818
[5]; first compound 8 µM
  relative viability: 0.626
[6]; first compound 0.08 µM
  relative viability: 0.775
[6]; first compound 0.253 µM
  relative viability: 0.611
[6]; first compound 0.8 µM
  relative viability: 0.696
[6]; first compound 2.53 µM
  relative viability: 0.66
[6]; first compound 8 µM
  relative viability: 0.501
[7]; first compound 0.08 µM
  relative viability: 0.539
[7]; first compound 0.253 µM
  relative viability: 0.527
[7]; first compound 0.8 µM
  relative viability: 0.531
[7]; first compound 2.53 µM
  relative viability: 0.459
[7]; first compound 8 µM
  relative viability: 0.459
[8]; first compound 0.08 µM
  relative viability: 0.212
[8]; first compound 0.253 µM
  relative viability: 0.203
[8]; first compound 0.8 µM
  relative viability: 0.183
[8]; first compound 2.53 µM
  relative viability: 0.225
[8]; first compound 8 µM
  relative viability: 0.197
[9]; first compound 0.08 µM
  relative viability: 0.522
[9]; first compound 0.253 µM
  relative viability: 0.447
[9]; first compound 0.8 µM
  relative viability: 0.5
[9]; first compound 2.53 µM
  relative viability: 0.437
[9]; first compound 8 µM
  relative viability: 0.692
[10]; first compound 0.253 µM
  relative viability: 0.265
[10]; first compound 0.8 µM
  relative viability: 0.327
[10]; first compound 2.53 µM
  relative viability: 0.32
[10]; first compound 8 µM
  relative viability: 0.34
[11]; first compound 0.08 µM
  relative viability: 0.274
[11]; first compound 0.253 µM
  relative viability: 0.282
[11]; first compound 0.8 µM
  relative viability: 0.337
[11]; first compound 2.53 µM
  relative viability: 0.298
[11]; first compound 8 µM
  relative viability: 0.239
[12]; first compound 0.08 µM
  relative viability: 0.613
[12]; first compound 0.253 µM
  relative viability: 0.586
[12]; first compound 0.8 µM
  relative viability: 0.509
[12]; first compound 2.53 µM
  relative viability: 0.522
[12]; first compound 8 µM
  relative viability: 0.595
